# Laboratory results taken from PubChem BioAssay AID264 (DTP/NCI, 2004).
# “And” between values parts separate entries of the source, which are not always exact repeats. Identical values can stand only once. Inconclusive results are not listed.
# Test system: nude mice, LX-1 lung xenograft intrarenal, tumor weight T/C
# Assay: NCI In Vivo Anticancer Drug Screen. Data for tumor model Human Lung LX-1 Xenograft (intrarenal inoculation) in NU/NU Swiss (nude) mice
# Details: endpoint: mean tumor weight change, higher = larger tumour
# Method in brief: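 Readout: T/C, i.e. treated-group tumor measurement over vehicle-control measurement. Mice bearing transplantable tumors were dosed with compound or vehicle.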
# [1] = dose: 50.0 mg/kg/injection, schedule: Q04DX003 (sc), vehicle: saline with Tween-80
# [2] = dose: 100.0 mg/kg/injection, schedule: Q04DX003 (sc), vehicle: saline with Tween-80
# [3] = dose: 200.0 mg/kg/injection, schedule: Q04DX003 (sc), vehicle: saline with Tween-80
# [4] = dose: 400.0 mg/kg/injection, schedule: Q04DX003 (sc), vehicle: saline with Tween-80
# [5] = dose: 100.0 mg/kg/injection, schedule: Q04DX003 (sc), vehicle: saline
# [6] = dose: 200.0 mg/kg/injection, schedule: Q04DX003 (sc), vehicle: saline
# [7] = dose: 100.0 mg/kg/injection, schedule: Q04DX003 (sc), vehicle: Klucel (hydroxypropylcellulose) (HPC)
# [8] = dose: 400.0 mg/kg/injection, schedule: Q04DX003 (sc), vehicle: Klucel (hydroxypropylcellulose) (HPC)
# [9] = dose: 800.0 mg/kg/injection, schedule: Q04DX003 (sc), vehicle: saline with Tween-80
smiles,measurement,setting,value
NC(=S)N/N=C/c1ccc(O)cn1,T/C,[1],102 % of control
same,T/C,[2],94 % of control
same,T/C,[3],96 % of control
same,T/C,[4],64 % of control
O=C1c2ccccc2C(=O)c2c(NCCNCCO)ccc(O)c21,T/C,"dose: 12.5 mg/kg/injection, schedule: Q04DX003 (sc), vehicle: suspension in saline",94 % of control
same,T/C,"dose: 25.0 mg/kg/injection, schedule: Q04DX003 (sc), vehicle: saline",90 % of control
same,T/C,"dose: 25.0 mg/kg/injection, schedule: Q04DX003 (sc), vehicle: suspension in saline",108 % of control
same,T/C,"dose: 50.0 mg/kg/injection, schedule: Q04DX003 (sc), vehicle: saline",74 % of control
same,T/C,"dose: 50.0 mg/kg/injection, schedule: Q04DX003 (sc), vehicle: suspension in saline",90 % of control
same,T/C,[5],61 % of control
same,T/C,"dose: 100.0 mg/kg/injection, schedule: Q04DX003 (sc), vehicle: suspension in saline",92 % of control
same,T/C,[6],93 % of control
COc1cccc2c1C(=O)c1c(O)c3c(c(O)c1C2=O)C[C@@](O)(C(C)=O)C[C@@H]3OC1CC(N(Cc2ccccc2)Cc2ccccc2)C(O)C(C)O1 (stereo not given in full),T/C,"dose: 25.0 mg/kg/injection, schedule: Q01DX010 (sc), vehicle: water",64 % of control
ClCC[N+]12CC[N+](CCCl)(CC1)C2,T/C,"dose: 50.0 mg/kg/injection, schedule: Q01DX010 (sc), vehicle: saline with Tween-80",42 % of control and 56 % of control
same,T/C,"dose: 400.0 mg/kg/injection, schedule: Q01DX010 (sc), vehicle: saline with Tween-80",24 % of control
same,T/C,"dose: 600.0 mg/kg/injection, schedule: Q04DX003 (sc), vehicle: water",54 % of control
OCCN1CCN(CCCN2c3ccccc3Sc3ccc(C(F)(F)F)cc32)CC1,T/C,"dose: 20.0 mg/kg/injection, schedule: Q01DX010 (sc), vehicle: saline",69 % of control
same,T/C,"dose: 40.0 mg/kg/injection, schedule: Q01DX010 (sc), vehicle: saline",75 % of control
CC1CN1C(=O)NCCCCCCNC(=O)N1CC1C (stereo not given),T/C,"dose: 40.0 mg/kg/injection, schedule: Q04DX003 (sc), vehicle: Klucel (hydroxypropylcellulose) (HPC)",6 % of control and 23 % of control
CCN1/C(=C/C=C/C=C\C=C\c2sc3ccc4ccccc4c3[n+]2CC)Sc2ccc3ccccc3c21,T/C,"dose: 6.25 mg/kg/injection, schedule: Q04DX003 (sc), vehicle: saline with Tween-80",156 % of control
same,T/C,"dose: 12.5 mg/kg/injection, schedule: Q04DX003 (sc), vehicle: saline with Tween-80",116 % of control
same,T/C,"dose: 25.0 mg/kg/injection, schedule: Q04DX003 (sc), vehicle: saline with Tween-80",78 % of control
same,T/C,[1],122 % of control
COc1cc2cc(c1Cl)N(C)C(=O)CC(OC(=O)CC(C)C)C1(C)OC1C(C)C1CC(O)(NC(=O)O1)C(OC)/C=C/C=C(C)C2 (stereo not given),T/C,"dose: 12.5 micrograms/kg/injection, schedule: Q01DX010 (sc), vehicle: saline + alcohol",73 % of control
same,T/C,"dose: 25.0 micrograms/kg/injection, schedule: Q01DX010 (sc), vehicle: saline + alcohol",59 % of control
same,T/C,"dose: 50.0 micrograms/kg/injection, schedule: Q01DX010 (sc), vehicle: saline + alcohol",107 % of control
NC1(C(=O)O)CCCC1,T/C,"dose: 12.0 mg/kg/injection, schedule: Q01DX010 (sc), vehicle: saline",94 % of control
same,T/C,"dose: 24.0 mg/kg/injection, schedule: Q01DX010 (sc), vehicle: saline",66 % of control
same,T/C,"dose: 48.0 mg/kg/injection, schedule: Q01DX010 (sc), vehicle: saline",57 % of control
same,T/C,"dose: 50.0 mg/kg/injection, schedule: Q01DX010 (sc), vehicle: saline",32 % of control
same,T/C,"dose: 96.0 mg/kg/injection, schedule: Q01DX010 (sc), vehicle: saline",29 % of control
O=C(O)C1CC(c2ccccc2)=NN1c1ccccc1 (stereo not given),T/C,"dose: 150.0 mg/kg/injection, schedule: Q04DX003 (sc), vehicle: water",105 % of control
COc1cccc2c1C(=O)c1c(O)c3c(c(O)c1C2=O)C[C@@](O)(/C(C)=N/NC(=O)c1ccccc1)C[C@@H]3OC1CC(N)C(O)C(C)O1 (stereo not given in full),T/C,"dose: 2.5 mg/kg/injection, schedule: Q04DX003 (sc), vehicle: water",113 % of control
same,T/C,"dose: 10.0 mg/kg/injection, schedule: Q04DX003 (sc), vehicle: water",68 % of control and 71 % of control and 93 % of control
same,T/C,"dose: 18.75 mg/kg/injection, schedule: Q04DX003 (sc), vehicle: water",57 % of control
same,T/C,"dose: 20.0 mg/kg/injection, schedule: Q04DX003 (sc), vehicle: water",69 % of control and 79 % of control and 87 % of control
same,T/C,"dose: 37.5 mg/kg/injection, schedule: Q04DX003 (sc), vehicle: water",36 % of control
same,T/C,"dose: 40.0 mg/kg/injection, schedule: Q04DX003 (sc), vehicle: water",71 % of control
same,T/C,"dose: 75.0 mg/kg/injection, schedule: Q04DX003 (sc), vehicle: water",18 % of control
same,T/C,"dose: 80.0 mg/kg/injection, schedule: Q04DX003 (sc), vehicle: water",79 % of control
CC(=O)C1(O)Cc2c(O)c3c(c(O)c2C(OC2CC(N)C(O)C(C)O2)C1)C(=O)c1ccccc1C3=O (stereo not given),T/C,"dose: 0.5 mg/kg/injection, schedule: Q04DX003 (sc), vehicle: water",120 % of control
O=C1OC(C(O)CO)C(O)=C1O (stereo not given),T/C,"dose: 400.0 mg/kg/injection, schedule: Q01DX010 (sc), vehicle: saline",205 % of control
same,T/C,"dose: 800.0 mg/kg/injection, schedule: Q01DX010 (sc), vehicle: saline",110 % of control
same,T/C,"dose: 1600.0 mg/kg/injection, schedule: Q01DX010 (sc), vehicle: saline",153 % of control
CCC[P+](c1ccccc1)(c1ccccc1)c1ccccc1,T/C,"dose: 37.5 mg/kg/injection, schedule: Q04DX003 (sc), vehicle: saline with Tween-80",83 % of control
same,T/C,"dose: 75.0 mg/kg/injection, schedule: Q04DX003 (sc), vehicle: saline with Tween-80",79 % of control
same,T/C,"dose: 150.0 mg/kg/injection, schedule: Q04DX003 (sc), vehicle: saline with Tween-80",79 % of control
CSCS(=O)C[C@H](CO)NC(=O)/C=C/c1c(C)[nH]c(=O)[nH]c1=O (stereo not given in full),T/C,"dose: 0.75 mg/kg/injection, schedule: Q04DX003 (sc), vehicle: saline",76 % of control
same,T/C,"dose: 1.5 mg/kg/injection, schedule: Q04DX003 (sc), vehicle: saline",70 % of control
same,T/C,"dose: 3.0 mg/kg/injection, schedule: Q04DX003 (sc), vehicle: saline",68 % of control
C1CNCOC1,T/C,"dose: 300.0 mg/kg/injection, schedule: Q04DX003 (sc), vehicle: saline",90 % of control
CC1=C[S+](c2ccccc2)c2cccc3cc4ccccc4c1c23 (stereo not given),T/C,"dose: 2.0 mg/kg/injection, schedule: Q04DX003 (sc), vehicle: saline with Tween-80",102 % of control
CN(C(=S)S(=O)(=O)C12CC3CC(CC(C3)C1)C2)c1ccccc1,T/C,"dose: 50.0 mg/kg/injection, schedule: Q04DX003 (sc), vehicle: Klucel (hydroxypropylcellulose) (HPC)",164 % of control
same,T/C,[7],161 % of control
same,T/C,[8],176 % of control
CCCCCCOC(CN(C)C)C(Cl)(Cl)Cl (stereo not given),T/C,[3],121 % of control
same,T/C,[4],95 % of control
same,T/C,[9],59 % of control
same,T/C,"dose: 1600.0 mg/kg/injection, schedule: Q04DX003 (sc), vehicle: saline with Tween-80",74 % of control
CCNC(=O)[B-][N+](C)(C)C,T/C,[7],108 % of control
same,T/C,"dose: 200.0 mg/kg/injection, schedule: Q04DX003 (sc), vehicle: Klucel (hydroxypropylcellulose) (HPC)",73 % of control
same,T/C,[8],48 % of control
COC(=O)c1ccoc1,T/C,"dose: 150.0 mg/kg/injection, schedule: Q04DX003 (sc), vehicle: saline",107 % of control
COc1cccc2c1C(=O)c1c(O)c3c(c(O)c1C2=O)C[C@@](O)(/C(CO)=N/NC(=O)c1ccc(Cl)c(Cl)c1)C[C@@H]3OC1CC(N)C(O)C(C)O1 (stereo not given in full),T/C,"dose: 8.0 mg/kg/injection, schedule: Q01DX010 (sc), vehicle: water",28 % of control
same,T/C,"dose: 16.0 mg/kg/injection, schedule: Q01DX010 (sc), vehicle: water",2 % of control
same,T/C,"dose: 24.0 mg/kg/injection, schedule: Q04DX003 (sc), vehicle: water",54 % of control
same,T/C,"dose: 48.0 mg/kg/injection, schedule: Q04DX003 (sc), vehicle: water",66 % of control
same,T/C,"dose: 96.0 mg/kg/injection, schedule: Q04DX003 (sc), vehicle: water",33 % of control
same,T/C,"dose: 192.0 mg/kg/injection, schedule: Q04DX003 (sc), vehicle: water",30 % of control
Cc1nnc2ncccn12,T/C,[5],112 % of control
same,T/C,[6],107 % of control
Nc1nc2ccc(NCc3ccc(C(=O)NC(CCC(=O)O)C(=O)O)cc3)cc2c(=O)[nH]1 (stereo not given),T/C,[2],94 % of control
same,T/C,[3],83 % of control
same,T/C,[4],109 % of control
same,T/C,[9],63 % of control
